Measurements from patent publication US12264142B2, “Heterocyclic compounds” (FLORATEK PHARMA SA, priority 2019, dated 2025).
Entries after “also recorded” stand apart in the source; their conditions may differ.

How the values were obtained:
[1] = system: KEGG pathways; test: KEGG pathway mapping of differentially-expressed genes; format: in vivo, C. elegans
Excerpt: To determine which among recognized aging-related pathways were most likely modulated by treatment with the SND303 compound, and to estimate their relative contributions, two approaches were undertaken. In one approach, the genes differentially expressed after treatment were mapped to pathways in the KEGG database, a curated knowledgebase of biological pathways. This placed the transcriptomic data within the context of well-characterized biological pathways, particularly several related to longevity.
Several of these genes matched to the canonical longevity pathways as curated in KEGG (FIG. 5). […] At Day 10, however, many more pathways were represented among differentially-expressed genes and each individual pathway was more richly populated with differentially-expressed genes. The most prominent increase was in the expression of genes involved in Oxidative Phosphorylation, possibly indicating maintenance of mitochondrial function. In addition, several components of the canonical Longevity Regulating Pathway are represented. With closer examination of these the differential expression of the gene encoding Target of Rapamycin (TOR) is notable. When the TOR pathways itself was expanded, several more differentially-expressed genes were represented that were not explicitly indicated in the Longevity Regulating Pathway. Applying this process with the other pathways and modules linked to the Longevity Regulating Pathway, a coherent hypothetical pathway of action emerges.

[2] = system: aging-related pathways; test: Pathway transcriptional profile score analysis; format: in vivo, C. elegans
Excerpt: In the second approach, the transcriptomic profile of worms treated with SND303 compound was compared with published transcriptomes in which specific aging-related pathways have been manipulated. In contrast with the first approach, this blindly scores how the data fits with published transcriptomic signatures of aging.
Frequently cited and relevant studies analyzing the transcriptomic signatures of aging-related pathways in C. elegans were selected for this analysis. […] To generate a transcriptional profile score, the log fold change for each key gene in each pair of comparison (e.g. SND303 vs. negative control) is multiplied by a direction-specific factor and assigned a positive or negative value based on whether the change is in the same direction as reported in the literature. All the gene scores for a given pathway are summed up to produce one aggregated score per pathway for each pair of comparison.

[3] = system: N2 wild type strain of worms; test: C. elegans life span (survival) assay, manual scoring (SND301); format: in vivo
Description: The survival assay was conducted in the presence of 50 μM SND301 with measurements of live, dead, and censored worms at time points every 2-3 days from the start of adulthood.
Thioflavin T was used in the assay as a positive control [Gamir-Morralla A et al, 2019, “Effects of Thioflavin T and GSK-3 Inhibition on Lifespan and Motility in a Caenorhabditis elegans Model of Tauopathy”, J Alzheimers Dis Rep., 3(1): 47-57]. Vehicle 25% and 1% DMSO were used as controls and represent the vehicles in which compounds and bacteria or bacteria alone respectively were resuspended. The final DMSO concentration in the agar plates was 0.5% and 0.02% respectively.
5 mM DMSO stock solutions for each compound were prepared in high-grade DMSO. Stocks were protected from light and stored in glass vials at 21° C. in a temperature-controlled room (to avoid freeze/thaw of DMSO). A fresh stock was prepared at the start of each experiment and stored for <1 week.
The lifespan assay was designed and performed according to published and validated methods with modifications for chemical treatment [Amrit F R G et al, 2014, “The C. elegans lifespan assay toolkit”, METHODS 68, 465-475; Leukanic, et. Al, “Manual Lifespan Assay Standard Operating Procedure”, Caenorhabditis Intervention Testing Program, https://figshare.com/articles/7_CITP_SOP_Manual_Lifespan_Assay/9738197/1]. Plates were seeded with compound dissolved in 25% DMSO and bacteria. The DMSO diffused through the agar to reach a final concentration of 0.5%. Synchronized day 1 adult worms were transferred to seeded plates containing compound and allowed to lay eggs for 2 hours (Day 0, “hatchoff”). The young adults were then removed, and the eggs were incubated at 20° C. until they had reached the young adult stage (day 3). 200 young adult worms per treatment were transferred to 8 fresh seeded 35 mm dishes with compound and 50 μM 5-Fluorodeoxyuridine to suppress progeny. […] Worms that were missing, stuck to the dish, burrowed, injured, or exploded were scored as censored and removed from the plate. To maintain chemical exposure at the experimental concentrations, worms were transferred every other scoring day to new seeded plates with compound.

[4] = Day 10, against negative control
[5] = end of the study, SND301 and Urolithin A 50 μM

| Structure (SMILES) | cel00980 Metabolism of xenobiotics by cytochrome P450: differentially-expressed genes ([1]; Day 3) | cel04212 Longevity regulating pathway: differentially-expressed genes ([1]; Day 3) | cel00190 Oxidative phosphorylation: differentially-expressed genes ([1]; Day 10) [genes] | cel03040 Spliceosome: differentially-expressed genes ([1]; Day 10) [genes] | cel03050 Proteasome: differentially-expressed genes ([1]; Day 10) [genes] | cel04010 MARK signaling pathway: differentially-expressed genes ([1]; Day 10) | cel04120 Ubiquitin mediated proteolysis: differentially-expressed genes ([1]; Day 10) [genes] | cel04140 Autophagy: differentially-expressed genes ([1]; Day 10) | cel04141 Protein processing in endoplasmic reticulum: differentially-expressed genes ([1]; Day 10) | cel04150 mTOR signaling pathway: differentially-expressed genes ([1]; Day 10) | cel04212 Longevity regulating pathway-worm: differentially-expressed genes ([1]; Day 10) | cel04361 Axon regeneration: differentially-expressed genes ([1]; Day 10) [genes] | Transcriptional profile score, overall ([2]; Day 3, against negative control) | Transcriptional profile score, Oxidative stress response [2, 4] | Transcriptional profile score, overall [2, 4] | Death events ([3]; Table 1A, at a certain point during the study, N2, SND301 and Urolithin A 50 μM) | % Complete ([3]; Table 1A, deaths attributed to aging from total worm population, at a certain point during the study, N2) [%] | Death events ([3]; Table 1B, end of the study, SND301 and Urolithin A 50 μM) | Maximum life span [3, 5] [days] | Median lifespan [3, 5] [days] |
| --- | --- | --- | --- | --- | --- | --- | --- | --- | --- | --- | --- | --- | --- | --- | --- | --- | --- | --- | --- | --- |
| CC(C)NC(=O)Oc1ccc2c(c1)oc(=O)c1cc(OC(=O)NC(C)C)ccc12 [SND303] | gst-4; Glutathione S-transferase 4; also recorded: sodh-1; Alcohol dehydrogenase 1; also recorded: gst-5; Probable glutathione S-transferase 5 | gst-4; Glutathione S-transferase 4; also recorded: gst-5; Probable glutathione S-transferase 5; also recorded: ctl-2; Peroxisomal catalase 1 | 15 | 10 | 11 | mtk-1; Protein kinase domain-containing protein; also recorded: fln-2; FiLamiN (actin binding protein) homolog; also recorded: nsy-1; Mitogen-activated protein; also recorded: mnk-1; MAP kinase-interacting; also recorded: pxf-1; Rap guanine nucleotide exchange factor; also recorded: ced-2; Cell death abnormality protein 2; also recorded: daf-2; Insulin-like receptor subunit beta | 6 | let-363; Target of rapamycin homolog; also recorded: daf-15; Raptor_N domain-containing protein; also recorded: pek-1; Eukaryotic translation initiation; also recorded: atg-2; Autophagy-related protein 2; also recorded: cpl-1; Cathepsin L-like; also recorded: epg-7; ATG11 domain-containing protein; also recorded: ragc-1; RAs-related GTP binding; also recorded: unc-51; Serine/threonine-protein kinase unc-51 | pdi-2; Protein disulfide-isomerase 2; also recorded: cup-2; Derlin-1; also recorded: skr-2; SKp1 Related (ubiquitin ligase; also recorded: pek-1; Eukaryotic translation initiation; also recorded: uggt-1; UDP-Glucose Glycoprotein; also recorded: nsy-1; Mitogen-activated protein kinase; also recorded: rbx-1; RING-box protein 1; also recorded: Protein transport protein Sec61 subunit gamma | let-363; Target of rapamycin homolog; also recorded: daf-15; Raptor_N domain-containing protein; also recorded: rict-1; RICTOR_V domain-containing protein; also recorded: T08A11.1; DEP domain-containing protein; also recorded: ragc-1; RAs-related GTP binding; also recorded: Y32H12A.8; WD_Repeats domain-containing; also recorded: daf-2; Insulin-like receptor subunit beta; also recorded: unc-51; Serine/threonine-protein kinase unc-51 | let-363; Target of rapamycin homolog; also recorded: sod-2; Superoxide dismutase [Mn] 1, mitochondrial; also recorded: gst-7; Probable glutathione S-transferase 7; also recorded: fat-6; Delta(9)-fatty-acid desaturase fat-6; also recorded: daf-2; insulin-like receptor subunit beta; also recorded: unc-51; Serine/threonine-protein kinase unc-51 | 7 | little deviation from the control | strong negative score | greatest overall profile contrast with control | – | – | – | – | – |
| O=c1oc2cc(O)ccc2c2ccc(O)cc12 [Urolithin A, reference compound] | – | – | – | – | – | – | – | – | – | – | – | – | – | – | – | 47 | 25.7 | 178 | 35 | 21 |
